These results are taken from PMC7796460, “Relation of Metal-Binding Property and Selective Toxicity of 8-Hydroxyquinoline Derived Mannich Bases Targeting Multidrug Resistant Cancer Cells” (Cancers, 2021).

A short description of series [1]: Reduction of in situ formed copper(II) complexes by GSH, followed spectrophotometrically. The series is classed as physicochemical. The conditions noted are these: 1:1 metal to ligand, 5 eq GSH (Figure 5B). The source says:
Disruption of cellular redox homeostasis can be responsible for the toxicity of an anticancer agent. […] In addition to their redox potentials, redox cycling of the complexed metal ions is also influenced by the kinetics of the reduction and re-oxidation reactions. Reduction of iron(III) and copper(II) complexes by the physiologically relevant reducing agents glutathione (GSH) and ascorbate was followed spectrophotometrically. Although GSH is a stronger reducing agent than ascorbate, ascorbate reacted considerably faster with the iron(III) complexes (Figure 5A), while reduction by GSH seemed to be kinetically hindered (not shown). […]
Figure 5 Reduction of the in situ formed iron(III) and copper(II) complexes from equimolar metal-to-ligand ratios with antioxidants was followed spectrophotometrically by the decrease in the respective absorbance maxima. (A) Time-dependent decrease of the absorbance values in equimolar 1:1 metal to ligand mixtures of FeCl3 with Q-1 at 356 nm (black), Q-2 at 348 nm (blue), Q-3 at 334 nm (green) and Q-4 at 328 nm upon addition of 2.5 equivalents of ascorbate. (B) Time-dependent decrease of the absorbance values in equimolar 1:1 metal to ligand mixtures of CuCl2 with Q-1 at 370 nm (black), Q-2 at 372 nm (blue), Q-3 at 368 nm (green) and Q-4 at 430 nm upon addition of 5 eq GSH. […]

Details of series [2]: method as in PMID 30460942. The note with it: copper(II) complex of the ligand; cited from earlier work.

With `Oc1c(CN2CCOCC2)ccc2cccnc12` [Compound Q-2, 7-(morpho-lino-methyl)quinolin-8-ol], the “Time until half of the initial copper(II) complex is reduced by GSH” value in series [1] is reported as “within the first minute”.
Take `Oc1c(CNCc2ccccc2F)cc(Cl)c2cccnc12` [Compound Q-4, 5-chloro-7-((2-fluorobenzylamino)methyl)quinolin-8-ol]: the “Time until half of the initial copper(II) complex is reduced by GSH” value in series [1] is reported as “not yet fully reached after two hours”. In addition, the “pKa CuLH (logβCuLH − logβCuL)” value in series [2] is recorded as 5.91.
